Like-named read-outs stand apart in the source and are kept apart here. In the oligonucleotide strings, read from the 5' end, every base follows the letter of its sugar. An asterisk marks phosphorothioate; unmarked linkages are phosphodiester. Other units and linkages are bracketed, terminal groups are in braces. A string of capitals states the bases alone. [tz] = triazole internucleoside linkage replacing phosphodiester; l = locked nucleic acid (LNA); [5mC] = 5-methylcytosine; d = 2'-deoxy (DNA)
Assays:
[1] = test system: RNA target 5′-rGCU GCA GGC GUC G (SEQ ID NO: 24); assay type: binding; settings: for Tm, RNA target: pH 7
[2] = test system: DNA target 5′-dGCT GCA GGC GTC G (SEQ ID NO: 23); assay type: binding; settings: for Tm, DNA target: pH 7
[3] = test system: RNA target: 5′-rGCU GCA AGC GUC G (SEQ ID NO: 34); assay: UV thermal melting, single triazole linkage (MeC-T step), RNA target; assay type: binding
[4] = test system: DNA target: 5′-dGCT GCA AGC GTC G (SEQ ID NO: 33); assay: UV thermal melting, single triazole linkage (MeC-T step), DNA target; assay type: binding
[5] = test system: RNA Target 3′-rGCUGCGMACGUCG (M = G, C, U); assay: Mismatch discrimination against RNA targets containing a mismatch nucleotide (UV melting); assay type: binding
[6] = test system: DNA target: 5′-dGCT GGA GAG GTC G (SEQ ID NO: 39); assay type: binding; settings: for Tm, DNA target: pH 7
[7] = test system: RNA target; 5′-rGCU AGA GAA GUC G (SEQ ID NO: 38); assay: UV thermal melting, two triazole linkages (MeC-T steps), RNA target; assay type: binding; settings: for Tm, RNA target / ΔTm/mod, RNA target: Table 6; for Tm, RNA target: 10 mM phosphate, 200 mM NaCl, pH 7.0, 3.0 μM each strand; for ΔTm/mod, RNA target: relative to unmodified ON7
[8] = test system: DNA target; 5′-dGCT AGA GAA GTC G (SEQ ID NO: 37); assay: UV thermal melting, two triazole linkages (MeC-T steps), DNA target; assay type: binding; settings: Table 6; for Tm, DNA target: 10 mM phosphate, 200 mM NaCl, pH 7.0, 3.0 μM each strand; for ΔTm/mod, DNA target: relative to unmodified ON7
[9] = test system: Phosphodiesterase 1 from Crotalus adamanteus venom
[10] = Table 5, 10 mM phosphate, 200 mM NaCl, pH 7.0, 3.0 μM each strand
[11] = Table 3, fully matched duplex (M = A)
[12] = change in Tm relative to the fully matched duplex (M = A)

5′-d CGACG^MeCp^MeCTGCAGC [ON33]
Tm, RNA target [1]: 69.1 °C
Tm, DNA target [2]: 68.7 °C

5′-d CGACG^MeCp^MeC^LTGCAGC [ON34]
ΔTm, RNA target (relative to the unmodified duplex ON33) [1]: +5.6
Tm, RNA target [1]: 74.7 °C
ΔTm, DNA target (relative to the unmodified duplex ON33) [2]: +3.3
Tm, DNA target [2]: 72 °C

5′-dCGACG^MeC^LtTTGCAGC (DNA dCdGdAdCdGl[5mC][tz]dTdTdGdCdAdGdC; further chemistry not given here) [ON5]
additional stabilising effect of LNA on the 5′-side of the triazole ([3]; DNA:RNA hybrids or DNA duplexes): no significant additional stabilising effect
Tm, RNA target [3, 10]: 55.5 °C
ΔTm, RNA target (change in Tm relative to the unmodified duplex) ([3]; Table 5, relative to ON1): -7.2 °C
Tm, DNA target [4, 10]: 52.7 °C
ΔTm, DNA target (change in Tm relative to the unmodified duplex) ([4]; Table 5, relative to ON1): -11.5 °C

5′-dCGACG^MeC^LtT^LTGCAGC [ON6]
additional stabilising effect of LNA on the 5′-side of the triazole [3]: no significant additional stabilising effect
ΔTm, RNA target (change in Tm relative to the unmodified duplex) [3]: +0.1
Tm, RNA target ([3]; pH 7): 62.9 °C
ΔTm, DNA target (change in Tm relative to the unmodified duplex) [4]: -5.8
Tm, DNA target ([4]; pH 7): 58.4 °C

5′-dCGACG^MeCtTTGCAGC (DNA dCdGdAdCdGd[5mC][tz]dTdTdGdCdAdGdC; further chemistry not given here) [ON3]
Tm, RNA target M = A [3, 11]: 56.6 °C
Tm, RNA target [3, 10]: 56.6 °C
ΔTm, RNA target (change in Tm relative to the unmodified duplex) ([3]; Table 5, relative to ON1): -6.2 °C
ΔTm, mismatch M = C [5, 12]: -16.1 °C
ΔTm, mismatch M = G [5, 12]: -2.2 °C
ΔTm, mismatch M = U [5, 12]: -12.9 °C
Tm, DNA target [4, 10]: 55.3 °C
ΔTm, DNA target (change in Tm relative to the unmodified duplex) ([4]; Table 5, relative to ON1): -8.9 °C

5′-dCGACG^MeCtT^LTGCAGC [ON2]
Tm, RNA target M = A [3]: 62 °C
increase in Tm relative to the duplex with only the triazole linkage [3]: 5.4
ΔTm, RNA target (change in Tm relative to the unmodified duplex) [3]: −0.8
Tm, RNA target ([3]; pH 7): 62 °C
ΔTm, mismatch M = C [5]: -15.6
ΔTm, mismatch M = G [5]: -3.3
ΔTm, mismatch M = U [5]: -13.4
increase in thermal stability compared to the duplex containing only the triazole linkage [4]: 2.9
ΔTm, DNA target (change in Tm relative to the unmodified duplex) [4]: −6.0
Tm, DNA target ([4]; pH 7): 58.2 °C

5′-dCGACG^MeCt^MeCTGCAGC [ON12]
ΔTm, RNA target (relative to the unmodified duplex ON33) [1]: -5.8
Tm, RNA target [1]: 63.4 °C
ΔTm, DNA target (relative to the unmodified duplex ON33) [2]: -6.4
Tm, DNA target [2]: 62 °C

5′-dCGACG^MeCt^MeC^LTGCAGC [ON11]
ΔTm, RNA target (relative to the unmodified duplex ON33) [1]: -0.5
Tm, RNA target [1]: 68.6 °C
ΔTm, DNA target (relative to the unmodified duplex ON33) [2]: -5.1
Tm, DNA target [2]: 63.5 °C

5′-dCGA^MeCp^MeCTCT^MeCp^MeCAGC [ON35]
Tm, DNA target [6]: 66.6 °C

5′-dCGA^MeCp^MeC^LTCT^MeCp^MeC^LAGC [ON36]
ΔTm/mod, DNA target [6]: +2.8
Tm, DNA target [6]: 72.2 °C

5′-dCGA^MeCtTTCT^MeCtTAGC (DNA dCdGdAd[5mC][tz]dTdTdCdTd[5mC][tz]dTdAdGdC; further chemistry not given here) [ON9]
Tm, RNA target [7]: 47.1 °C
ΔTm/mod, RNA target [7]: -5.8 °C/modification
Tm, DNA target [8]: 42.3 °C
ΔTm/mod, DNA target [8]: -7.4 °C/modification

5′-dCGA^MeCtT^LTCT^MeCtT^LAGC (DNA dCdGdAd[5mC][tz]lTdTdCdTd[5mC][tz]lTdAdGdC; further chemistry not given here) [ON8]
increase in Tm per modification relative to two triazole linkages without 3′-LNA ([7]; ON8 compared with ON9, RNA target): 5.0 °C/modification
drop in Tm per modification compared to unmodified ON7 ([7]; RNA target): 0.8 °C/modification
Tm, RNA target [7]: 57.1 °C
ΔTm/mod, RNA target [7]: -0.8 °C/modification
Tm, DNA target [8]: 48.0 °C
ΔTm/mod, DNA target [8]: -4.5 °C/modification

5′-dCGA^MeCt^MeCTCT^MeCt^MeCAGC [ON14]
ΔTm/mod, DNA target [6]: -7.3
Tm, DNA target [6]: 51.9 °C

5′-dCGA^MeCt^MeC^LTCT^MeCt^MeC^LAGC [ON13]
ΔTm/mod, DNA target [6]: -5.1
Tm, DNA target [6]: 56.4 °C

CGACG^MeCTTGCAGC (DNA CGACGCTTGCAGC; DNA, [5mC] at 6, backbone not given here) [ON1]
Tm, RNA target M = A [3, 11]: 62.8 °C
Tm, RNA target [3, 10]: 62.8 °C
ΔTm, mismatch M = C [5, 12]: -16.3 °C
ΔTm, mismatch M = G [5, 12]: -3.9 °C
ΔTm, mismatch M = U [5, 12]: -13.7 °C
Tm, DNA target [4, 10]: 64.2 °C
time to full digestion by 3′-exonuclease (gel) [9]: ≤ 5 min

CGACG^MeCT^LTGCAGC [ON4]
Tm, RNA target M = A [3]: 68.9 °C
ΔTm, RNA target (change in Tm relative to the unmodified duplex) [3]: 6.1
Tm, RNA target ([3]; pH 7): 68.9 °C
ΔTm, mismatch M = C [5]: -15.2
ΔTm, mismatch M = G [5]: -4.8
ΔTm, mismatch M = U [5]: -13.7
ΔTm, DNA target (change in Tm relative to the unmodified duplex) [4]: 3.3
Tm, DNA target ([4]; pH 7): 67.5 °C

CGA^MeCTTCT^MeCTAGC (DNA dCdGdAd[5mC]dTdTdCdTd[5mC]dTdAdGdC) [ON7]
Tm, RNA target [7]: 58.8 °C
Tm, DNA target [8]: 57.1 °C

CGA^MeCT^LTCT^MeCT^LAGC (DNA dCdGdAd[5mC]lTdTdCdTd[5mC]lTdAdGdC) [ON10]
Tm, RNA target [7]: 70.0 °C
ΔTm/mod, RNA target [7]: +5.6 °C/modification
Tm, DNA target [8]: 62.2 °C
ΔTm/mod, DNA target [8]: +2.5 °C/modification

Reference: patent US11104700B2, “Oligonucleotides” (OXFORD UNIVERSITY INNOVATION LIMITED, priority 2017, dated 2021)
